Measurements: patent EP0241804A2, “Preserved antacid preparations” (BAYER AG, priority 1986, dated 1987)

System: Testmikroorganismen
Assay: Preservative challenge test (BP 1980 / USP XXI) of antacid preparations
Type: cell-based
Conditions: for Ergebnisse von Konservierungstests: Hydrotalcitsuspensionen with the preservative added at various concentrations (Tabelle 2); for Vermehrung von Bakterien und Hefen: Hydrotalcitsuspensionen, also at high preservative concentrations
Description: Der Nachweis der einwandfreien Haltbarmachung von Antacida-Zubereitungen erfolgte mit Hilfe geeigneter Konservierungsbelastungstests wie sie z.B. in der Britischen Pharmakopöe von 198O (British Pharmacopoeia 198O, Addendum 1982, Revised Apendix XVIC: Efficacy of Antimicrobial Preservatives in Pharmaceutical Products) oder der Pharmakopöe der Vereinigten Staaten (The United States Pharmacopeia XXI (1985) Antimicrobial Preservatives Effectiveness,S. 1151-1156) beschrieben werden.
Neben einer Richtlinie der WHO für nichtsterile Produkte, die eine Begrenzung des Keimgehalts in nichtsterilen oralen Arzneimitteln auf 1OOO/ml fordert, gelten unterschiedlich hohe Anforderungen hinsichtlich der Abtötungsrate für bestimmte Testmikroorganismen, je nach Pharmakopöe. Die britische Pharmakopöe verlangt z.B. eine Verminderung der Bakterienkonzentration um 2 Zehnerpotenzen innerhalb von 7 Tagen sowie keine Vermehrung von Hefen und Schimmelpilzen (s. Tab. 1).

SMILES	Ergebnisse von Konservierungstests	Vermehrung von Bakterien und Hefen
C=CCc1ccc(O)c(OC)c1 [Eugenol, 2-Methoxy-4-(2-propenyl)phenol]	gut konserviert	–
Cc1ccc(C(C)C)c(O)c1 [Thymol, 5-Methyl-2-(1-methylethyl)phenol]	gut konserviert	–
O=CC=Cc1ccccc1 [Zimtaldehyd, 3-Phenyl-2-propenal]	gut konserviert	–
N=C(NCCCCCCNC(=N)NC(=N)Nc1ccc(Cl)cc1)NC(=N)Nc1ccc(Cl)cc1 [Chlorhexidin]	unwirksam	–
C/C=C/C=C/C(=O)O [Sorbinsäure]	unwirksam	Vermehrung von Bakterien und Hefen
O=C(O)c1ccccc1 [Benzoesäure]	unwirksam	Vermehrung von Bakterien und Hefen
